Measured values reported in patent US11332455B2, “α,β-unsaturated amide compound” (KYOWA KIRIN CO., LTD., priority 2015, dated 2022).
Each block holds one molecule with its values, some of them ahead of it.

System: NCI-H226 cells, a human mesothelioma cell line
Test: Cell growth inhibitory effect, cell counting kit 8, 6 days
Type: cell-based
Conditions: 144 h, 6 days incubation
From the text: Cell growth inhibitory effect on human mesothelioma, human liver cancer, human ovarian cancer, and […]
NCI-H226 cells, a human mesothelioma cell line (ATCC, CRL-5826), NCI-H322 cells, a human lung cancer cell line (the European Collection of Authenticated Cell Cultures, 95111734), OVTOKO cells, a human ovarian cancer cell line (JCRB cell bank, JCRB1048) and HuH28, a human liver cancer cell line (JCRB cell bank, JCRB0426) were each subcultured by keeping the cell density under 80% in a RPMI1640 culture medium with 10% fetal bovine serum (FBS). NCI-H226 cells, NCI-H322 cells and SSP-25 cells were each suspended in the RPM11640 culture medium mentioned above, and plated to a 96-well flat-bottom plate at 500 cells/well in each well, and incubated at 37° C. in an incubator with 5% CO2 for one day. After the incubation, the evaluation of cell growth inhibitory activity was started. OVTOKO cells were suspended in the RPMI1640 culture medium mentioned above, and plated to a 96-well flat-bottom plate at 250 cells/well in each well, and incubated it at 37° C. in an incubator with 5% CO2 for one day. After the incubation, the evaluation of the cell growth inhibitory activity was started. The next day, a test compound was serially diluted to 5 times of its final concentration in the RPM11640 culture medium mentioned above, and the diluted solution was added to each well. In this case, the final concentration of DMSO in each well was adjusted to 0.1%. After the test compound was added, cells were incubated at 37° C. in an incubator with 5% CO2 for 6 days. At the addition of the test compound and 6 days after the addition, the cell counting measurement was performed using a cell counting kit 8 (made by DOJINDO) according to a protocol equivalent to DOJINDO's recommendation. A reagent contained in the kit was added to each plate and color reaction was performed for 2 or 3 hours at 37° C. in an incubator with 5% CO2. After the reaction, an absorbance at wavelength of 450 nm was measured using a microplate reader. A growth inhibition rate was calculated according to the following formula, from which the concentration of a test compound at which cell growth was inhibited by 50% (GI50 value) was determined.

[1] = group 100 nmol/L to 1 μmol/L (upper bound given in μmol/L)

Compound: C=CC(=O)NC1COc2c(cc(Br)cc2Oc2ccc(C(F)(F)F)nc2)C1 (racemic) [Compound 153, N-(6-Bromo-8-[{6-(trifluoromethyl)pyridin-3-yl}oxy]chroman-3-yl) acrylamide]
- GI50 [1]: 100 to 1000 nM

Compound: C=CC(=O)N[C@H]1CC[C@@H](Oc2ccccc2)c2ncccc21 (relative stereo) [Compound 67, cis-N-(8-Phenoxy-5,6,7,8-tetrahydroquinolin-5-yl)acrylamide]
- GI50 [1]: 100 to 1000 nM

Compound: C=CC(=O)N[C@H]1CC[C@@H](Oc2cnc(Cl)c(Cl)c2)c2nc(Cl)ccc21 (relative stereo) [Compound 181, cis-N-[2-Chloro-8-{(5,6-dichloropyridin-3-yl)oxy}-5,6,7,8-tetrahydroquinolin-5-yl]acrylamide]
- GI50 [1]: 100 to 1000 nM

Compound: C=CC(=O)N[C@H]1CC[C@@H](Oc2ccc(C(F)(F)F)cc2)c2nc(CC)ccc21 (relative stereo) [Compound 186, cis-N-[2-ethyl-8-{4-(trifluoromethyl)phenoxy}-5,6,7,8-tetrahydroquinolin-5-yl]acrylamide]
- GI50 [1]: 100 to 1000 nM

Compound: C=CC(=O)NC1CCOc2cc(Oc3ccc(Cl)cc3)ccc21 (stereo not shown) [Compound 3, N-{7-(4-Chlorophenoxy)chroman-4-yl}acrylamide]
- GI50 (group less than 100 nmol/L): < 100 nM

Compound: C=CC(=O)NC1CCOc2cc(OCc3ccccc3)ccc21 (stereo not shown) [Compound 14, N-{7-(Benzyloxy)chroman-4-yl}acrylamide]
- GI50 [1]: 100 to 1000 nM

Compound: C=CC(=O)NC1CCOc2cc(Oc3ccc(Cl)cc3)c(C)cc21 (stereo not shown) [Compound 23, N-{7-(4-Chlorophenoxy)-6-methylchroman-4-yl}acrylamide]
- GI50 [1]: 100 to 1000 nM

Compound: C=CC(=O)NC1CCOc2c1ccc(Oc1ccc(Cl)cc1)c2F (stereo not shown) [Compound 30, N-{7-(4-Chlorophenoxy)-8-fluorochroman-4-yl}acrylamide]
- GI50 (group less than 100 nmol/L): < 100 nM

Compound: C=CC(=O)NC1COc2c(cccc2Oc2cccc(C(F)(F)F)c2)C1 (stereo not shown) [Compound 43, N-[8-{3-(Trifluoromethyl)phenoxy}chroman-3-yl]acrylamide]
- GI50 (group less than 100 nmol/L): < 100 nM

Compound: C=CC(=O)Nc1cncc(Oc2cccc(OCC)c2)c1 [Compound 101, N-{5-(3-Ethoxyphenoxy)pyridin-3-yl}acrylamide]
- GI50 [1]: 100 to 1000 nM

Compound: C=CC(=O)Nc1cncc(Oc2ccc(OCC)cc2)c1 [Compound 102, N-{5-(4-Ethoxyphenoxy)pyridin-3-yl}acrylamide]
- GI50 [1]: 100 to 1000 nM

Compound: C=CC(=O)Nc1cncc(Oc2ccc(OC(C)C)cc2)c1 [Compound 103, N-{5-(4-Isopropoxyphenoxy)pyridin-3-yl}acrylamide]
- GI50 [1]: 100 to 1000 nM

Compound: C=CC(=O)Nc1ccc(OC2CCC(F)(F)CC2)c2ncccc12 [Compound 120, N-[8-{(4,4-Difluorocyclohexyl)oxy}quinolin-5-yl]acrylamide]
- GI50 [1]: 100 to 1000 nM

Compound: C=CC(=O)NCc1ccc(Oc2cccc(Cl)c2)c2ncccc12 [Compound 133, N-[{8-(3-chlorophenoxy)quinolin-5-yl}methyl]acrylamide]
- GI50 (group less than 100 nmol/L): < 100 nM

Compound: C=CC(=O)NCc1cc(Oc2ccc(C(F)(F)F)cc2)nc2ccccc12 [Compound 146, N-([2-{4-(Trifluoromethyl)phenoxy}quinolin-4-yl]methyl)acrylamide]
- GI50 [1]: 100 to 1000 nM

Compound: O=C(/C=C/C(F)(F)F)NCc1cc(Oc2ccc(C(F)(F)F)cc2)nc2ccccc12 [Compound 147, (E)-4,4,4-Trifluoro-N-([2-{4-(trifluoromethyl)phenoxy}quinolin-4-yl]methyl)-2-butenamide]
- GI50 [1]: 100 to 1000 nM

Compound: C=CC(=O)NC1COc2c(cccc2Oc2ccc(C(F)(F)F)nn2)C1 (stereo not shown) [Compound 156, N-(8-[{6-(trifluoromethyl)pyridazin-3-yl}oxy]chroman-3-yl)acrylamide]
- GI50 [1]: 100 to 1000 nM

Compound: C=CC(=O)NC1CCOc2c1ccc(OCc1ccccc1)c2F (stereo not shown) [Compound 166, N-{7-(Benzyloxy)-8-fluorochroman-4-yl}acrylamide]
- GI50 [1]: 100 to 1000 nM

More lines, now with the values ahead:

- GI50 (group less than 100 nmol/L): < 100 nM
Compound: C=CC(=O)N[C@H]1C[C@@H](C)Oc2cc(Oc3ccc(C(F)(F)F)cc3)ccc21 (relative stereo) [Compound 19, cis-N-[2-Methyl-7-{4-(trifluoromethyl)phenoxy}chroman-4-yl]acrylamide]

- GI50 (group less than 100 nmol/L): < 100 nM
Compound: C=CC(=O)N[C@H]1C[C@H](C)Oc2cc(Oc3ccc(C(F)(F)F)cc3)ccc21 (relative stereo) [Compound 20, trans-N-[2-Methyl-7-{4-(trifluoromethyl)phenoxy}chroman-4-yl]acrylamide]

- GI50 [1]: 100 to 1000 nM
Compound: C=CC(=O)N[C@H]1CC[C@H](Oc2ccc(Cl)cc2)c2nc(OC)ccc21 (relative stereo) [Compound 81, trans-N-{8-(4-Chlorophenoxy)-2-methoxy-5,6,7,8-tetrahydroquinolin-5-yl}acrylamide]

- GI50 (group less than 100 nmol/L): < 100 nM
Compound: C=CC(=O)NC1CCOc2cc(Oc3ccccc3)ccc21 (stereo not shown) [Compound 1, N-(7-phenoxychroman-4-yl)acrylamide]

- GI50 (group less than 100 nmol/L): < 100 nM
Compound: C=CC(=O)NC1CCOc2cc(Oc3ccc(C(F)(F)F)c(Cl)n3)ccc21 (stereo not shown) [Compound 11, N-(7-[{6-Chloro-5-(trifluoromethyl)pyridin-2-yl}oxy]chroman-4-yl)acrylamide]

- GI50 [1]: 100 to 1000 nM
Compound: C=CC(=O)NC1CCOc2cc(OCC3CCCCC3)ccc21 (stereo not shown) [Compound 16, N-{7-(Cyclohexylmethoxy)chroman-4-yl}acrylamide]

- GI50 [1]: 100 to 1000 nM
Compound: C=CC(=O)NC1CCOc2ccc(Oc3ccc(Cl)cc3)cc21 (stereo not shown) [Compound 24, N-{6-(4-Chlorophenoxy)chroman-4-yl}acrylamide]

- GI50 [1]: 100 to 1000 nM
Compound: C=CC(=O)NCC1CCOc2cc(Oc3ccc(Cl)cc3)ccc21 (stereo not shown) [Compound 26, N-[{7-(4-Chlorophenoxy)chroman-4-yl}methyl]acrylamide]

- GI50 [1]: 100 to 1000 nM
Compound: Cc1c(Oc2ccc(C(F)(F)F)cc2)ccc2c1OCCC2NC(=O)/C=C/C(F)(F)F (stereo not shown) [Compound 29, (E)-4,4,4-Trifluoro-N-[8-methyl-7-{4-(trifluoromethyl)phenoxy}chroman-4-yl]-2-butenamide]

- GI50 (group less than 100 nmol/L): < 100 nM
Compound: C=CC(=O)NC1COc2cccc(Oc3ccc(Cl)cc3)c2C1 (stereo not shown) [Compound 34, N-{5-(4-Chlorophenoxy)chroman-3-yl}acrylamide]

- GI50 (group less than 100 nmol/L): < 100 nM
Compound: C=CC(=O)NC1COc2c(Oc3ccc(Cl)cc3)cccc2C1=O (stereo not shown) [Compound 39, N-{8-(4-Chlorophenoxy)-4-oxochroman-3-yl}acrylamide]

- GI50 (group less than 100 nmol/L): < 100 nM
Compound: C=CC(=O)NC1COc2c(cccc2Oc2ccc(C(F)(F)F)cc2)C1 (stereo not shown) [Compound 44, N-[8-{4-(Trifluoromethyl)phenoxy}chroman-3-yl]acrylamide]

- GI50 [1]: 100 to 1000 nM
Compound: C=CC(=O)NC1COc2c(cccc2Oc2ccc(Cl)nc2)C1 (stereo not shown) [Compound 49, N-[8-{(6-Chloropyridin-3-yl)oxy}chroman-3-yl]acrylamide]

- GI50 (group less than 100 nmol/L): < 100 nM
Compound: C=CC(=O)NC1COc2c(cccc2Oc2ccc(C(F)(F)F)cn2)C1 (stereo not shown) [Compound 50, N-(8-[{5-(Trifluoromethyl)pyridin-2-yl}oxy]chroman-3-yl)acrylamide]

- GI50 (group less than 100 nmol/L): < 100 nM
Compound: C=CC(=O)NC1COc2c(cccc2Oc2cnc(Cl)c(C)c2)C1 (stereo not shown) [Compound 56, N-[8-{(6-Chloro-5-methylpyridin-3-yl)oxy}chroman-3-yl]acrylamide]

- GI50 [1]: 100 to 1000 nM
Compound: C=CC(=O)Nc1cnc(C)c(Oc2ccc(Cl)cc2)c1 [Compound 92, N-{5-(4-Chlorophenoxy)-6-methylpyridin-3-yl}acrylamide]

- GI50 [1]: 100 to 1000 nM
Compound: C=CC(=O)Nc1cc(Oc2ccc(Cl)cc2)cnc1C [Compound 93, N-{5-(4-Chlorophenoxy)-2-methylpyridin-3-yl}acrylamide]

- GI50 [1]: 100 to 1000 nM
Compound: C=CC(=O)Nc1cncc(Oc2ccc(Cl)cc2)c1 [Compound 94, N-{5-(4-chlorophenoxy)pyridin-3-yl}acrylamide]

- GI50 (group less than 100 nmol/L): < 100 nM
Compound: C=CC(=O)Nc1cncc(Oc2ccc(OC(F)(F)F)cc2)c1 [Compound 100, N-[5-{4-(Trifluoromethoxy)phenoxy}pyridin-3-yl]acrylamide]

- GI50 [1]: 100 to 1000 nM
Compound: C=CC(=O)Nc1cncc(Oc2ccc(Cl)c(Cl)c2)c1 [Compound 105, N-{5-(3,4-Dichlorophenoxy)pyridin-3-yl}acrylamide]

- GI50 [1]: 100 to 1000 nM
Compound: C=CC(=O)Nc1ccc(Oc2ccc(Cl)cc2)c2ncccc12 [Compound 116, N-{8-(4-Chlorophenoxy)quinolin-5-yl}acrylamide]

- GI50 [1]: 100 to 1000 nM
Compound: C=CC(=O)Nc1ccc(OCc2ccccc2)c2ncccc12 [Compound 123, N-{8-(Benzyloxy)quinolin-5-yl}acrylamide]

- GI50 [1]: 100 to 1000 nM
Compound: C=CC(=O)NCc1ccc(Oc2ccc(C3CC3)cc2)c2ncccc12 [Compound 136, N-[{8-(4-Cyclopropylphenoxy)quinolin-5-yl}methyl]acrylamide]

- GI50 [1]: 100 to 1000 nM
Compound: C=CC(=O)NCc1ccc(Oc2ccc(Cl)nc2)c2ncccc12 [Compound 142, N-([8-{(6-Chloropyridin-3-yl)oxy}quinolin-5-yl]methyl)acrylamide]

- GI50 [1]: 100 to 1000 nM
Compound: C=CC(=O)NCc1cc(Oc2ccc(Cl)cc2)nc2ccccc12 [Compound 144, N-[{2-(4-Chlorophenoxy)quinolin-4-yl}methyl]acrylamide]
